According to patent publication US9533952B2, “N-prop-2-ynyl carboxamide derivatives and their use as TRPA1 antagonists” (Orion Corporation, priority 2012, dated 2017):

Molecular target: TRPA1 (Homo sapiens, UniProt O75762)
Experiment: Determination of TRPA1 activity in vitro (TRPA1 antagonism in vitro)
Assay type: cell-based
Settings: procedure of Wei et al., Anesthesiology 111 (2009) 147-154

Sequence of TRPA1 (O75762 whole entry): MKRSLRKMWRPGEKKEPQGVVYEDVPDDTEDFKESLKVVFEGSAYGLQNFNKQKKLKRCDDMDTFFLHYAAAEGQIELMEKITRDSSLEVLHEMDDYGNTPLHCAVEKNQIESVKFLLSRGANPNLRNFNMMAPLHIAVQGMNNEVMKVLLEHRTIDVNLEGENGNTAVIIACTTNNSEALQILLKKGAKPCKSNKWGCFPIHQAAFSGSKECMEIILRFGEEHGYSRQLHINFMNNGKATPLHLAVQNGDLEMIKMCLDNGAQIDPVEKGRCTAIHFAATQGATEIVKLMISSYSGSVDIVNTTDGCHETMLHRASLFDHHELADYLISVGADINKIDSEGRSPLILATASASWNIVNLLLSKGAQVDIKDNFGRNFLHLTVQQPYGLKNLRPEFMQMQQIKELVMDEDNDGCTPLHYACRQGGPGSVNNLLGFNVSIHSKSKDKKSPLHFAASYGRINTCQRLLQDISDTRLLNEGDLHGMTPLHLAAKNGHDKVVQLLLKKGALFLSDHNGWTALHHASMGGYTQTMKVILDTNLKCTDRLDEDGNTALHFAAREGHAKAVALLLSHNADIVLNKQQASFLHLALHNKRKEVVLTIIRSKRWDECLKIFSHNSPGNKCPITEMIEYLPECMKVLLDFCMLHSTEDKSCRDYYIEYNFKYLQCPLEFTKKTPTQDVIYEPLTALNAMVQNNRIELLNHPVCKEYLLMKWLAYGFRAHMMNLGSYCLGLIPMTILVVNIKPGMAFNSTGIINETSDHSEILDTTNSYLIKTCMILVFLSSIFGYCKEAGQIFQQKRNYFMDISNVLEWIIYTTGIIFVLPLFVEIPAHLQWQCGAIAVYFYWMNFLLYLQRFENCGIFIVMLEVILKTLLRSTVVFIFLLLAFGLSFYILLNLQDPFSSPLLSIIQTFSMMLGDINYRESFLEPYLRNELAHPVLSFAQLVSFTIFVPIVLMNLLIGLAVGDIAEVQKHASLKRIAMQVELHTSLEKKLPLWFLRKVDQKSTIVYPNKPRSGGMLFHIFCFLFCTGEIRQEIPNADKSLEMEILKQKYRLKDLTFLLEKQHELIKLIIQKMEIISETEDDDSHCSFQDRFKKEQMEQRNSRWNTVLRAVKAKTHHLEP

Row | IC50 [nM] | Compound
1 | 3700 | C#CC(C)(C)NC(=O)c1cc(OC)ccc1NCCCC(F)(F)F [Example 96, 5-Methoxy-N-(2-methylbut-3-yn-2-yl)-2-(4,4,4-trifluorobutylamino)-benzamide]
2 | 1200 | C#CC(C)(C)NC(=O)c1cc(Cl)ccc1NCC(F)(F)F [Example 14, 5-Chloro-N-(2-methylbut-3-yn-2-yl)-2-(2,2,2-trifluoroethylamino)-benzamide]
3 | 2600 | C#CC(C)(C)NC(=O)c1cc(F)ccc1NCC(F)(F)C(F)(F)F [Example 31, 5-Fluoro-N-(2-methylbut-3-yn-2-yl)-2-(2,2,3,3,3-pentafluoropropylamino) benzamide]
4 | 11400 | C#CC(C)(C)NC(=O)c1cc(C)ccc1NC(C)C [Example 93, 2-(Isopropylamino)-5-methyl-N-(2-methylbut-3-yn-2-yl)benzamide]
5 | 2500 | C#CC(C)(C)NC(=O)c1cc(F)c(F)cc1NCC(F)(F)F [Example 38, 4,5-Difluoro-N-(2-methylbut-3-yn-2-yl)-2-(2,2,2-trifluoroethylamino)-benzamide]
6 | 1600 | C#CC(C)(C)NC(=O)c1cc(F)cnc1NC1CC(F)(F)C1 [Example 156, 2-(3,3-Difluorocyclobutylamino)-5-fluoro-N-(2-methylbut-3-yn-2-yl)nicotinamide]
7 | 14000 | C#CC(C)(C)NC(=O)c1cccnc1NCc1cccc(OC)c1 [Example 97, 2-(3-Methoxybenzylamino)-N-(2-methylbut-3-yn-2-yl)nicotinamide]
8 | 4000 | C#CC(C)(C)NC(=O)c1cc(F)cnc1NC(C)C(F)(F)F (stereo not drawn) [Example 158, 5-Fluoro-N-(2-methylbut-3-yn-2-yl)-2-(1,1,1-trifluoropropan-2-ylamino)nicotinamide]
9 | 3700 | C#CC(C)(C)NC(=O)c1cc(F)cnc1NC(C)(C)C [Example 162, 2-(tert-Butylamino)-5-fluoro-N-(2-methylbut-3-yn-2-yl)nicotinamide]
10 | 300 | C#CC(C)(CC)NC(=O)c1cc(F)ccc1NCCCC (stereo not drawn) [Example 102, 2-(Butylamino)-5-fluoro-N-(3-methylpent-1-yn-3-yl)benzamide]
11 | 900 | C#CC(C)(C)NC(=O)c1cc(F)cnc1Nc1cccc(F)c1 [Example 175, 5-Fluoro-2-(3-fluorophenylamino)-N-(2-methylbut-3-yn-2-yl)nicotinamide]
12 | 300 | C#CC(C)(C)NC(=O)c1cc(C)ccc1NCC(F)(F)C(F)(F)F [Example 30, 5-Methyl-N-(2-methylbut-3-yn-2-yl)-2-(2,2,3,3,3-pentafluoropropyl-amino)benzamide]
13 | 900 | C#CC(C)(C)NC(=O)c1cc(C)ccc1NCCC(F)(F)F [Example 77, 5-Methyl-N-(2-methylbut-3-yn-2-yl)-2-(3,3,3-trifluoropropylamino)-benzamide]
14 | 1300 | C#CC(CC)(CC)NC(=O)c1cc(Cl)ccc1NCCOC [Example 44, 5-Chloro-N-(3-ethylpent-1-yn-3yl)-2-(2-methoxyethylamino)-benzamide]
15 | 800 | C#CC(C)(C)NC(=O)c1ccc(Cl)cc1NCCC [Example 13, 4-Chloro-N-(2-methylbut-3-yn-2-yl)-2-(propylamino)benzamide]
16 | 1100 | C#CC(C)(C)NC(=O)c1cccnc1Nc1cccc(F)c1 [Example 121, 2-(3-Fluorophenylamino)-N-(2-methylbut-3-yn-2-yl)nicotinamide]
17 | 200 | C#CC(C)(CC)NC(=O)c1cccnc1Nc1cccc(F)c1 (stereo not drawn) [Example 184, 2-(3-Fluorophenylamino)-N-(3-methylpent-1-yn-3-yl)nicotinamide]
18 | 300 | C#CC(C)(CC)NC(=O)c1cc(F)cnc1Nc1cccc(F)c1 (stereo not drawn) [Example 176, 5-Fluoro-2-(3-fluorophenylamino)-N-(3-methylpent-1-yn-3-yl)nicotinamide]
19 | 2300 | C#CC(C)(C)NC(=O)c1ccc(C(F)(F)F)nc1NC1CC1 [Example 117, 2-(Cyclopropylamino)-N-(2-methylbut-3-yn-2-yl)-6-(trifluoromethyl)-nicotinamide]
20 | 500 | C#CC(C)(C)NC(=O)c1ccc(C(F)(F)F)cc1NCCC(F)(F)F [Example 72, N-(2-methylbut-3-yn-2-yl)-4-(trifluoromethyl)-2-(3,3,3-trifluoropropyl-amino)benzamide]
21 | 4700 | C#CC(C)(C)NC(=O)c1cc(Cl)ccc1NC(C)C [Example 4, 5-Chloro-2-(isopropylamino)-N-(2-methylbut-3-yn-2-yl)benzamide]
22 | 800 | C#CC(C)(CC)NC(=O)c1cccnc1Nc1cc(Cl)cc(OC)c1 (stereo not drawn) [Example 168, 2-(3-Chloro-5-methoxyphenylamino)-N-(3-methylpent-1-yn-3-yl)nicotinamide]
23 | 2900 | C#CC(C)(C)NC(=O)c1cc2c(cc1NCC(C)C)OCO2 [Example 7, 6-(Isobutylamino)-N-(2-methylbut-3-yn-2-yl)benzo[d][1,3]dioxole-5-carboxamide]

Row | IC50 [nM] | Compound
24 | 3100 | C#CC(C)(C)NC(=O)c1cc(F)c(F)cc1NCCC [Example 63, 4,5-Difluoro-N-(2-methylbut-3-yn-2-yl)-2-(propylamino)benzamide]
25 | 2200 | C#CC(C)(C)NC(=O)c1cc(F)c(F)cc1NC1CC1 [Example 86, 2-(Cyclopropylamino)-4,5-difluoro-N-(2-methylbut-3-yn-2-yl) benzamide]
26 | 2300 | C#CC(C)(C)NC(=O)c1cc(Cl)cnc1NCC(C)(F)F [Example 59, 5-Chloro-2-(2,2-difluoropropylamino)-N-(2-methylbut-3-yn-2-yl)nicotinamide]
27 | 3800 | C#CC(C)(C)NC(=O)c1cc(Cl)cnc1NCC(F)F [Example 32, 5-Chloro-2-(2,2-difluoroethylamino)-N-(2-methylbut-3-yn-2-yl)nicotinamide]
28 | 5700 | C#CC(C)(C)NC(=O)c1cc(C(F)(F)F)ccc1NCCOC [Example 48, 2-(2-Methoxyethylamino)-N-(2-methylbut-3-yn-2-yl)-5-(trifluoromethyl)benzamide]
29 | 2200 | C#CC(C)(C)NC(=O)c1ccc(OC)cc1NCCC(F)(F)F [Example 73, 4-Methoxy-N-(2-methylbut-3-yn-2-yl)-2-(3,3,3-trifluoropropylamino)-benzamide]
30 | 7500 | C#CC(C)(C)NC(=O)c1ccc(C(F)(F)F)cc1NC [Example 84, 2-(Methylamino)-N-(2-methylbut-3-yn-2-yl)-4-(trifluoromethyl)-benzamide]
31 | 5500 | C#CC(C)(C)NC(=O)c1cc(F)cnc1Nc1ccc(C2CCCC2)nc1 [Example 140, 2-(6-Cyclopentylpyridin-3-ylamino)-5-fluoro-N-(2-methylbut-3-yn-2-yl)nicotinamide]
32 | 1100 | C#CC(C)(C)NC(=O)c1cc(C(F)(F)F)cnc1NCCC(F)F [Example 58, 2-(3,3-Difluoropropylamino)-N-(2-methylbut-3-yn-2-yl)-5-(trifluoromethyl)nicotinamide]
33 | 4800 | C#CC(C)(C)NC(=O)c1ccc(C(F)(F)F)nc1NC1CCOCC1 [Example 115, N-(2-Methylbut-3-yn-2-yl)-2-(tetrahydro-2H-pyran-4-ylamino)-6-(trifluoromethyl)nicotinamide]
34 | 4600 | C#CC(C)(C)NC(=O)c1cccnc1NC(C)(C)C(F)(F)F [Example 125, N-(2-Methylbut-3-yn-2-yl)-2-(1,1,1-trifluoro-2-methylpropan-2-ylamino)nicotinamide]
35 | 8000 | C#CC(C)(C)NC(=O)c1cscc1NCCC [Example 126, N-(2-Methylbut-3-yn-2-yl)-4-(propylamino)thiophene-3-carboxamide]
36 | 2200 | C#CC(C)(C)NC(=O)c1cc(F)cnc1NCC(C)C [Example 51, 5-Fluoro-2-(isobutylamino)-N-(2-methylbut-3-yn-2-yl)nicotinamide]
37 | 4800 | C#CC(C)(C)NC(=O)c1ccc(F)cc1NC1CC1 [Example 90, 2-(Cyclopropylamino)-4-fluoro-N-(2-methylbut-3-yn-2-yl)benzamide]
38 | 14900 | C#CC(C)(C)NC(=O)c1cc(Cl)cnc1NCCOCC [Example 148, 5-Chloro-2-(2-ethoxyethylamino)-N-(2-methylbut-3-yn-2-yl)nicotinamide]
39 | 400 | C#CC(C)(C)NC(=O)c1cc(F)c(F)cc1NCC(C)C [Example 62, 4,5-Difluoro-2-(isobutylamino)-N-(2-methylbut-3-yn-2-yl)benzamide]
40 | 12300 | C#CC(C)(C)NC(=O)c1cc(F)ccc1NC(C)C [Example 92, 5-Fluoro-2-(isopropylamino)-N-(2-methylbut-3-yn-2-yl)benzamide]
41 | 2600 | C#CC(C)(C)NC(=O)c1cc(F)cnc1NCCCOc1ccc(F)cc1 [Example 144, 5-Fluoro-2-(3-(4-fluorophenoxy)propylamino)-N-(2-methylbut-3-yn-2-yl)nicotinamide]
42 | 500 | C#CC(C)(C)NC(=O)c1cc(Cl)cnc1NCCC(F)(F)F [Example 41, 5-Chloro-N-(2-methylbut-3yn-2-yl)-2-(3,3,3-trifluoropropylamino)-nicotinamide]
43 | 1700 | C#CC(C)(C)NC(=O)c1cc(F)cc(F)c1NCCC(F)(F)F [Example 55, 3,5-Difluoro-N-(2-methylbut-3-yn-2-yl)-2-(3,3,3-trifluoropropylamino)-benzamide]
44 | 500 | C#CC(C)(C)NC(=O)c1cccnc1Nc1ccc(C)c(F)c1 [Example 149, 2-(3-Fluoro-4-methylphenylamino)-N-(2-methylbut-3-yn-2-yl)nicotinamide]
45 | 1400 | C#CC(C)(C)NC(=O)c1cccnc1Nc1ccc(F)cc1 [Example 131, 2-(4-Fluorophenylamino)-N-(2-methylbut-3-yn-2-yl)nicotinamide]
46 | 500 | C#CC(CC)(CC)NC(=O)c1cc(C(F)(F)F)ccc1NCCOC [Example 46, N-(3-Ethylpent-1-yn-3-yl)-2-(2-methoxyethylamino)-5-(trifluoro-methyl)benzamide]

Row | Compound | IC50 [nM]
47 | 5-Chloro-N-(2-methylbut-3-yn-yl)-2-(2,2,2-trifluoroethylamino)-nicotinamide [Example 34] | 500
48 | 5-Bromo-2-(ethylamino)-N-(2-methylbut-3-yn-2-yl)nicotinanilide [Example 153] | 10400
